Assay results taken from the NIST ThermoML archive (doi:10.1021/je9004189).
± gives the expanded uncertainty stated by the source.

How the values were obtained:
[1] = refractive index (Na D-line) (dimensionless); settings: 293.15 K; 101.33 kPa; Liquid; Standard Abbe refractometry
[2] = 293.15 K, 101.33 kPa, Liquid

refractive index [1] | mass density ([2]; Vibrating tube method) [kg/m3] | SMILES | mass density [2] [kg/m3]
1.5011 ± 0.0007 | 879 ± 1 | c1ccccc1 [benzene] | –
1.366 ± 0.0007 | 790 ± 1 | CCO [ethanol] | –
1.3301 ± 0.0007 | 792 ± 1 | CO [methanol] | –

SMILES | refractive index [1] | mass density ([2]; Vibrating tube method) [kg/m3] | mass density [2] [kg/m3]
CC(C)=O [acetone] | 1.359 ± 0.0007 | – | 790 ± 1
